Data taken from US20260293949A1, “CARBONATION SENSATION IMPARTING OR ENHANCING AGENT” (TAKASAGO INTERNATIONAL CORPORATION, priority 2022, published 2026).

Experiment: Sensory evaluation of fizziness enhancement in carbonated water (WILKINSON TANSAN), specialized panelists
Format: in vivo
Settings: for Fizziness enhancement evaluation result: average score of seven panelists
Procedure: In the following Examples, the action and effect were verified using a value obtained by calculating an average score of scores for imparting or enhancing fizziness by sensory evaluation conducted by specialized panelists. The expression “1 point” in the evaluation is the evaluation in the case where no component is added at all (no addition).
Diethyl sebacate (manufactured by Inoue Perfumery Mfg. Co., Ltd., the same applies to the following Examples) was separately added to “WILKINSON (registered trademark) TANSAN (manufactured by Asahi Soft Drinks Co., Ltd.)” so as to reach the concentrations shown in Table 2 below, and sensory evaluation was performed by seven specialized panelists to determine the extent to which fizziness was enhanced as compared with a control in which diethyl sebacate was not added.
Diisobutyl adipate (manufactured by Inoue Perfumery Mfg. Co., Ltd., the same applies to the following Examples) was separately added to “WILKINSON (registered trademark) TANSAN (manufactured by Asahi Soft Drinks Co., Ltd.)” so as to reach the concentrations shown in Table 3 below, and sensory evaluation was performed by seven specialized panelists to determine the extent to which fizziness was enhanced as compared with a control in which diisobutyl adipate was not added.
Dimethyl sebacate (manufactured by Tokyo Chemical Industry Co., Ltd.) was separately added to “WILKINSON (registered trademark) TANSAN (manufactured by Asahi Soft Drinks Co., Ltd.)” so as to reach the concentrations shown in Table 4 below, and sensory evaluation was performed by seven specialized panelists to determine the extent to which fizziness was enhanced as compared with a control in which dimethyl sebacate was not added.
Dipropyl adipate (manufactured by Tokyo Chemical Industry Co., Ltd.) was separately added to “WILKINSON (registered trademark) TANSAN (manufactured by Asahi Soft Drinks Co., Ltd.)” so as to reach the concentrations shown in Table 5 below, and sensory evaluation was performed by seven specialized panelists to determine the extent to which fizziness was enhanced as compared with a control in which dipropyl adipate was not added.

SMILES | amelioration of mouthfeel (in words) | fizziness enhancement (in words) | Fizziness enhancement evaluation result (0.005 ppm, 1 (not enhanced) to 5 (extremely enhanced)) [points] | Fizziness enhancement evaluation result (0.01 ppm, 1 to 5) [points] | Fizziness enhancement evaluation result (0.1 ppm, 1 to 5) [points] | Fizziness enhancement evaluation result (0.5 ppm, 1 to 5) [points] | Fizziness enhancement evaluation result (1 ppm, 1 to 5) [points] | Fizziness enhancement evaluation result (5 ppm, 1 to 5) [points] | Fizziness enhancement evaluation result (10 ppm, 1 to 5) [points] | Fizziness enhancement evaluation result (20 ppm, 1 to 5) [points] | Fizziness enhancement evaluation result (50 ppm, 1 to 5) [points] | Fizziness enhancement evaluation result (100 ppm, 1 to 5) [points]
CC(C)COC(=O)CCCCC(=O)OCC(C)C [Diisobutyl adipate, diisobutyl adipate] | effect of ameliorating the mouthfeel was also confirmed | fizziness of carbonated water can be enhanced | 1.1 | 1.6 | 3.4 | 3.6 | 3.4 | 1.7 | 1.3 | – | – | –
COC(=O)CCCCCCCCC(=O)OC [Dimethyl sebacate, dimethyl sebacate] | effect of ameliorating the mouthfeel was also confirmed | fizziness of carbonated water can be enhanced | – | – | 1.1 | 1.6 | 2.0 | 2.4 | 3.1 | 2.6 | 1.4 | 1.3
CCCOC(=O)CCCCC(=O)OCCC [Dipropyl adipate, dipropyl adipate] | effect of ameliorating the mouthfeel was also confirmed | fizziness of carbonated water can be enhanced | – | – | 1.1 | 1.4 | 1.9 | 2.6 | 3.0 | 1.7 | 1.4 | 1.1
